Five substances from patent US5092876A, “Cell attachment peptides derived from amyloid P component” (The United States of America as represented by the …, priority 1989, dated 1992) can be followed below.

The assay deals with cells. Nature of the assay: Cell attachment assay, peptides/proteins from amyloid P component coated on plates (Table I). Type of assay: cell-based. Conditions: plates coated with peptide/protein (20 uM); average ± SEM. The procedure:
All cell types used were obtained from American Type Culture Collection, Rockville, Md. and were maintained in Dulbecco's modified Eagle's medium (DMEM) supplemented with 10% fetal calf serum (FCS). The cells were grown to approximately 80% confluency in Falcon T75 flasks. For cell attachment assays, cells were washed with PBS (pH 7.4), and then detached from the tissue culture flasks with 0.025% trypsin, 0.025% EDTA.
The cells were sedimented by low speed centrifugation, suspended in serum-free Eagle's minimal essential medium (EMEM) containing 0.05% BSA and used immediately in the cell attachment assays.
Cell attachment was assayed as described by Graf et al., Biochemistry 26, 6896-6900 (1987). 24 well plastic culture plates (Linbro, Flow Laboratories, Inc., Va.) were coated with the desired peptides at 25° C. for 16 h in 0.1M bicarbonate buffer, pH 9.6. Exposed non-specific cell attachment sites were blocked by coating the wells with 3% BSA for 1 h at 25° C. Cells, (1.1×10^5), prepared as described above, were added to each well and incubated at 37° C. for 1 h in a humidified incubator with 5% CO2 --95% air mixture. At the end of incubation, plates were gently washed twice with PBS to remove unattached cells. Attached cells were treated with trypsin and electronically counted. […] Each peptide was tested for cell attachment in six separate experiments.
Tissue culture plates (obtained from Linbro, Flow Laboratories, Inc., Va.) were coated with peptides or proteins at […]. Before coating (a) AP was denatured with 6M Guanidine HCl (GnHCl) for 2 h at 4° C. GnHCl was removed by extensive dialysis against 0.1M bicarbonate buffer, pH 9.6 at 4° C.; (b) AP was heat-denatured at 100° C. for 15 min.; (c) native AP was reduced and the free sulfhydryl groups were blocked by carboxymethylation, and (d) heat-denatured AP was treated as in (c). The values are expressed as the average ± SEM, and are reported hereinbelow in Table I.

“GnHCl-Denatured SAP (a): AP denatured with 6M Guanidine HCl for 2 h at 4° C., GnHCl removed by dialysis”: the No. attached cells turned out to be 3835 ± 424.

“Heat-Denatured SAP (b): AP heat-denatured at 100° C. for 15 min.” gave a No. attached cells of 3926 ± 552.

In turn, “Native SAP: Amyloid P component isolated from normal human serum, 125 kDa glycoprotein” registered a No. attached cells of 3125 ± 348.

Consider “Reduced (heat-denatured SAP)/carboxymethylated (d): heat-denatured AP reduced and carboxymethylated as in (c)”, for which the No. attached cells came out at 3436 ± 396.

On to “Reduced (native)/carboxy-methylated (c): native AP reduced and the free sulfhydryl groups blocked by carboxymethylation”, for which the No. attached cells turned out to be 2558 ± 428.
